Consider one molecule from article PMC6706711 (Iranian Journal of Pharmaceutical Research : IJPR, 2019).

The conditions of series [1]: cited from earlier work. From the text: In this study, the data of 155 children (aged from 1 month to 16 years) infected with MRS were used to establish a PPK model suitable for Chinese children. And then the PK parameters were obtained by Bayesian method. […] But the value of CL is faster than that reported by Marques-Minana et al.([23]) (0.066 L· ...
In a further series the test system is MRSA. Also on record: method as in 2 sources, one per row (each row's own in cited_ref): ref Giachetto et al. ([32]) ||| ref Frymoyer et al. ([33]). To be noted: vancomycin 39.92mg·kg-1·d-1; MRSA strains with MIC 1 mg·L-1; ref Giachetto et al. ([32]); cited from earlier work.
For series [2] the following is noted: 1,000 bootstrap-resampled data sets.
The nature of series [3]: Individual pharmacokinetic parameters by renal function subgroup, post hoc empirical Bayesian approach. Particulars: Total, N=155, mean ± SD.
Procedure: After fixing the PK parameters and variation in the final model, the PK parameters for individuals in three groups of different renal function were obtained by using post hoc empirical Bayesian approach. The mean values and standard deviation of the parameters in different groups were calculated.
[4] abbreviates: Japanese pediatric patients, ref Yasuhara et al.([17]).
Setting [5] is: pediatric patients, ref Wrishko et al.(16).

The structures appear in SMILES notation. Read-outs that look alike come from different tables or passages of the source.

Turning to `CN[C@H](CC(C)C)C(=O)N[C@H]1C(=O)N[C@@H](CC(N)=O)C(=O)N[C@H]2C(=O)N[C@H]3C(=O)N[C@H](C(=O)N[C@H](C(=O)O)c4cc(O)cc(O)c4-c4cc3ccc4O)[C@H](O)c3ccc(c(Cl)c3)Oc3cc2cc(c3O[C@@H]2O[C@H](CO)[C@@H](O)[C@H](O)[C@H]2O[C@H]2C[C@](C)(N)[C@H](O)[C@H](C)O2)Oc2ccc(cc2Cl)[C@H]1O` [vancomycin, Vancomycin], in series [1] (setting [4]), the CL is 1.98 mL/min/kg and the Vd is 0.522 L/kg. In addition, in series [1] (neonates, ref Marques-Minana et al.([23])), the CL is 1.1 mL/min/kg. Moreover, in series [1] (setting [5]), the CL was 2 mL/min/kg and the Vd is 0.57 L/kg. Besides, the “probability of AUC0-24h/MIC ≥ 400” value in the series on MRSA is recorded as 50%. Also, in series [2], the “Exponent for Weight as covariate for CL, bootstrap median” value turned out to be 0.852; the “Exponent for Weight as covariate for Vd, bootstrap median” value was found to be 1.018; the “Exponent for lnGFR as covariate for CL, bootstrap median” value is recorded as 2.378; the “θVd (typical value for Weight=9 kg), bootstrap median” value stood at 5.39 L. Further, in series [3], the CL came out at 2.22 ± 1.1 mL/min/kg, the Vd is 0.65 ± 0.30 L/kg and the ke stood at 0.218 ± 0.091 h⁻¹.
